From ChEMBL document CHEMBL1121544, “Synthesis, absorption, and toxicity of N1,N8-bis(2,3-dihydroxybenzoyl)spermidine, a potent iron chelator” (J Med Chem, 1980)

How the values were obtained:
Format in all cases: functional, organism-based
Rattus norvegicus [1] = species on record: Rattus norvegicus; assay: % chelator inside the intestinal sac in animal 1 at middle segment of the intestine starting from the proximal end.
Rattus norvegicus [2] = species on record: Rattus norvegicus; assay: % chelator inside the intestinal sac in animal 2 at upper segment of the intestine starting from the proximal end.
Rattus norvegicus [3] = species on record: Rattus norvegicus; assay: % chelator inside the intestinal sac in animal 1 at lower (distal) segment of the intestine starting from the proximal end
Rattus norvegicus [4] = species on record: Rattus norvegicus; assay: % chelator inside the intestinal sac in animal 2 at middle segment of the intestine starting from the proximal end.
Rattus norvegicus [5] = species on record: Rattus norvegicus; assay: % chelator inside the intestinal sac in animal 2 at lower (distal) segment of the intestine starting from the proximal end
Rattus norvegicus [6] = species on record: Rattus norvegicus; assay: % chelator inside the intestinal sac in animal 3 at upper segment of the intestine starting from the proximal end.
Rattus norvegicus [7] = species on record: Rattus norvegicus; assay: % chelator inside the intestinal sac in animal 3 at middle segment of the intestine starting from the proximal end.
Rattus norvegicus [8] = species on record: Rattus norvegicus; assay: % chelator inside the intestinal sac in animal 1 at upper segment of the intestine starting from the proximal end.
Rattus norvegicus [9] = species on record: Rattus norvegicus; assay: % chelator inside the intestinal sac in animal 3 at lower (distal) segment of the intestine starting from the proximal end

`O=C(NCCCCNCCCNC(=O)c1cccc(O)c1O)c1cccc(O)c1O` gave a Chelator (Rattus norvegicus [1]) of 40%, a Chelator (Rattus norvegicus [2]) of 33% and a Chelator (Rattus norvegicus [3]) of 44%. The Chelator (Rattus norvegicus [4]) was 35%, the Chelator (Rattus norvegicus [5]) was 32% and the Chelator (Rattus norvegicus [6]) was 32%. It also gave a Chelator (Rattus norvegicus [7]) of 44%, a Chelator (Rattus norvegicus [8]) of 42% and a Chelator (Rattus norvegicus [9]) of 50%.
